The values below come from paper PMC11684029, “Discovery of VU6024578/BI02982816: An mGlu1 Positive Allosteric Modulator with Efficacy in Preclinical Antipsychotic and Cognition Models” (Journal of Medicinal Chemistry, 2024).

pEC50, pIC50: −log10 of the molar value. “Also recorded” adds a separate entry of the source.

One data set addresses 3A4 (Homo sapiens, UniProt P08684). As to the kind of experiment: inhibition of cytochrome P450 enzymes. In kind it is in vitro ADME. Details: 0.1 mg/mL human liver microsomes (HLM) and Substrate Mix; from tissue; host or cells: human liver microsomes. The settings on record: human liver microsomes; read-out: CYP450 3A4 inhibition. How it is done: A cocktail of substrates for cytochrome P450 enzymes (1A2: Phenacetin, 10 μM; 2C9: Diclofenac, 5 μM; 2D6: Dextromethorphan, 5 μM; 3A4: Midazolam, 2 μM) were mixed for cocktail analysis. For P450 2C19, the substrate stock (Mephenytoin, 40 μM)and substrate mix were prepared separately for discrete analysis. The positive control for pan-P450 inhibition (miconazole) was included alongside each test compound in analysis.
A reaction mixture of 100 mM Kpi, pH 7.4, 0.1 mg/mL human liver microsomes (HLM) and Substrate Mix is prepared and aliquoted into a 96-deepwell block. Test compound and positive control (in duplicate) were then added such that the final concentration of test compound ranged from 0.1–30 μM. […]
Samples were analyzed via electrospray ionization (ESI) on an AB Sciex API-4000 (Foster City, CA) triple-quadrupole instrument that was coupled with Shimadzu LC-10AD pumps (Columbia, MD) and a Leap Technologies CTC PAL autosampler (Carrboro, NC). […]
The IC50 values for each compound were obtained for the individual CYP enzymes by quantitating the inhibition of metabolite formation for each probe substrate. A 0 μM compound condition (or control) was set to 100% enzymatic activity and the effect of increasing test compound concentrations on enzymatic activity could then be calculated from the % of control activity. […]

Another data set is described as follows: hydrolytic stability. In kind it is physicochemical.
A further data set has as its target T1, human mGlu1 (Homo sapiens, UniProt Q13255).
T1 construct: expressed in transfected cells; pcDNA5/TO)
As to the kind of experiment: mGlu1 calcium mobilization (triple-add) PAM assay. In kind it is cell-based. How it is done: Tetracycline-inducible human mGlu1 WT-T-REx-293 cells (Wu et al, Science 2014) were cultured at 37 °C in Dulbecco’s Modified Eagle Medium (DMEM) growth medium containing 10% Tet-tested FBS, 2 mM L-glutamine, 20 mM HEPES, 0.1 mM nonessential amino acids, 1 mM sodium pyruvate, antibiotic/antimycotic, 100 μg/mL hygromycin and 5 μg/mL blasticidin in the presence of 5% CO2. […] The mutant stable cell lines were generated in the same manner as the WT as previously described and cultured in the growth medium described above.
To determine the potency of mGlu1 PAMs in calcium assays, Ca flux was measured as previously described in ACS Chem. Bio. 2014, 9, 2334–2346. Briefly, the day before the assay, human mGlu1 WT-T-REx-293 cells were plated in black-walled, clear-bottomed, poly-D-lysine coated 96-well plates at 80,000 cells/100 μL assay medium (DMEM supplemented with 10% dialyzed FBS, 20 mM HEPES, and 1 mM sodium pyruvate) containing 50 ng/mL of tetracycline to induce mGlu1 expression. The next day, media was removed and the cells were incubated with 50 μL of 1.15 μM Fluo-4 AM dye solution prepared in assay buffer (buffer (Hank’s balanced salt solution, 20 mM HEPES, and 2.5 mM probenecid) for 45 min at 37 °C, the dye was removed and replaced with 45 μL of assay buffer. Then, calcium flux was measured using Flexstation II (Molecular Devices, Sunnyvale, CA). Compounds serially diluted at half log concentrations in DMSO were further diluted in assay buffer. The compounds or DMSO vehicle were added to cells and incubated for 2.5 min and an EC20 concentration of glutamate was added and incubated for 1 min. An ECmax concentration of glutamate was also added to cells that were incubated with DMSO vehicle to accurately calculate the EC20 calcium response. Data were normalized by subtracting the basal florescent peak before EC20 agonist addition from the maximal peak elicited by EC20 agonist and PAMs. Using GraphPad Prism 5.0, the concentration response curves were generated and the potencies of the mGlu1 PAMs were determined.
Background: A change in cytosolic calcium serves as a functional read-out for many receptors and channels.

Setting [1] is: PAM, calcium flux, EC20 glutamate.

T1 sequence (Q13255 19-1194): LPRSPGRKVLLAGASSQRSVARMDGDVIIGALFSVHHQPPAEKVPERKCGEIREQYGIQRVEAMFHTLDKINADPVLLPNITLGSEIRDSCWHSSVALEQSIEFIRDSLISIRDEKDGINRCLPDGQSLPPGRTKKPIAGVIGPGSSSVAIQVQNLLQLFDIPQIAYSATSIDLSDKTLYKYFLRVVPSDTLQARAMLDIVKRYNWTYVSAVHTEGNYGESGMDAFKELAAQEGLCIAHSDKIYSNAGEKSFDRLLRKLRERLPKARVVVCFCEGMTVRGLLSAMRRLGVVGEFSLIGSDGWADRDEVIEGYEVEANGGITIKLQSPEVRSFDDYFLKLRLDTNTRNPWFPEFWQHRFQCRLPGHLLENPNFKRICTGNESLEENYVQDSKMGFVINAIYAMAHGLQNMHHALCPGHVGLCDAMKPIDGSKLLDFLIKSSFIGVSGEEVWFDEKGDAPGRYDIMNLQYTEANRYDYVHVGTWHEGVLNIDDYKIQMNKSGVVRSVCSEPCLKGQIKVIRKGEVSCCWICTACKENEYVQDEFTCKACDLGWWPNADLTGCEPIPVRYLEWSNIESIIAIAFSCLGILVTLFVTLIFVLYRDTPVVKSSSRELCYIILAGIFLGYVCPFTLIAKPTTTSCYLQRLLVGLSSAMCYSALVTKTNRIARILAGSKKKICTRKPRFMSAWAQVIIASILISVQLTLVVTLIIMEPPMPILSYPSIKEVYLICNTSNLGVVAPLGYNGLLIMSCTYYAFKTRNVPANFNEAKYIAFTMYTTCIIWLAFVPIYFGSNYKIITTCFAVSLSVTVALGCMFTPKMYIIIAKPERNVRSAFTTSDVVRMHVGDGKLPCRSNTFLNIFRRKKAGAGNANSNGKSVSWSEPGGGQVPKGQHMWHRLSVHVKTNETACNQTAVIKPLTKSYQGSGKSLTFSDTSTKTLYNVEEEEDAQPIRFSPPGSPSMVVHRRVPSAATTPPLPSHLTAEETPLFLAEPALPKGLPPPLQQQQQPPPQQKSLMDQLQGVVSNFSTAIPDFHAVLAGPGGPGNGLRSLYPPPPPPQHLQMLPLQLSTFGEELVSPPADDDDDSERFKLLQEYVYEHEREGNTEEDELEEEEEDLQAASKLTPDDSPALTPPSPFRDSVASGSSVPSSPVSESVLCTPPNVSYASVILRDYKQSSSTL
3A4, sequence (P08684 whole entry): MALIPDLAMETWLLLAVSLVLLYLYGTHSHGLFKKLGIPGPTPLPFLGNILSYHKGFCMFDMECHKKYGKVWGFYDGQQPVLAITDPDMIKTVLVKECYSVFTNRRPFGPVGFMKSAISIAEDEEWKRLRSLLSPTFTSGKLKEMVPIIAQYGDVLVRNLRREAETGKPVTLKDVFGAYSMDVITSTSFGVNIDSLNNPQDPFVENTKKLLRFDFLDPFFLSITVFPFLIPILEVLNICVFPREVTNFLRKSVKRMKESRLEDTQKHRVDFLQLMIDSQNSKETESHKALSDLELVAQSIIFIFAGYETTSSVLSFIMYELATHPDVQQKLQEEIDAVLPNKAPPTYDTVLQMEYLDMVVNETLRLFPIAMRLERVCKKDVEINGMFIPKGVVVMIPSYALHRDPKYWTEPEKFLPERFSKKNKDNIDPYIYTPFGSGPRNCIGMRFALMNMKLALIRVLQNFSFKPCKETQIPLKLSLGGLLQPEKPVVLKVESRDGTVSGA

Take `Cn1nc(-c2ccnn2C)cc1CNC(=O)c1cc(-c2ccco2)ccc1Cl` [Compound 19d, 2-Chloro-N-((1,2′-dimethyl-1H,2’H-[3,3′-bipyrazol]-5-yl)methyl)-5-(furan-2-yl)benzamide]: the pIC50 at 3A4 is 4.66. The hydrolytic stability result in the data set “hydrolytic stability” (acidic, pH 2.2) is recorded as “hydrolytically stable”. Further, the hydrolytic stability entry in the data set “hydrolytic stability” (neutral, pH 7.4) is listed as “hydrolytically stable”. Moreover, on human mGlu1 (setting [1]), the negative-log EC50 (pEC50) was 7.27 and the “human mGlu1 Glumax” value is 83%. For the same compound, the “human mGlu1 pEC50” value at human mGlu1 (n = 77) is 7.31 ± 0.02. The “receptor desensitization (antagonist/EC80 window)” value on human mGlu1 (triple-add protocol) is on record as “only slight mGlu1 desensitization; also recorded: little receptor desensitization”. Besides, the “intrinsic agonist activity (compound alone window)” value on human mGlu1 (triple-add protocol, up to 30 μM) is on record as “no agonism; also recorded: no intrinsic agonist activity”.

What is called pEC50 is the negative decadic logarithm of the EC50, by convention in mol/L.
